Results on two compounds are retold here after patent US20230002327A1, “SMALL-MOLECULE REGULATOR OF TLR8” (TSINGHUA UNIVERSITY, priority 2019, published 2023).

Molecules are shown by their SMILES.

The target of data set [1] is T1, TLR8 (Homo sapiens, UniProt Q9NR97).
T1 construct: host or cells: HEK-Blue hTLR8 (HEK293-derived SEAP reporter cells)
T1 sequence (Q9NR97 27-1041): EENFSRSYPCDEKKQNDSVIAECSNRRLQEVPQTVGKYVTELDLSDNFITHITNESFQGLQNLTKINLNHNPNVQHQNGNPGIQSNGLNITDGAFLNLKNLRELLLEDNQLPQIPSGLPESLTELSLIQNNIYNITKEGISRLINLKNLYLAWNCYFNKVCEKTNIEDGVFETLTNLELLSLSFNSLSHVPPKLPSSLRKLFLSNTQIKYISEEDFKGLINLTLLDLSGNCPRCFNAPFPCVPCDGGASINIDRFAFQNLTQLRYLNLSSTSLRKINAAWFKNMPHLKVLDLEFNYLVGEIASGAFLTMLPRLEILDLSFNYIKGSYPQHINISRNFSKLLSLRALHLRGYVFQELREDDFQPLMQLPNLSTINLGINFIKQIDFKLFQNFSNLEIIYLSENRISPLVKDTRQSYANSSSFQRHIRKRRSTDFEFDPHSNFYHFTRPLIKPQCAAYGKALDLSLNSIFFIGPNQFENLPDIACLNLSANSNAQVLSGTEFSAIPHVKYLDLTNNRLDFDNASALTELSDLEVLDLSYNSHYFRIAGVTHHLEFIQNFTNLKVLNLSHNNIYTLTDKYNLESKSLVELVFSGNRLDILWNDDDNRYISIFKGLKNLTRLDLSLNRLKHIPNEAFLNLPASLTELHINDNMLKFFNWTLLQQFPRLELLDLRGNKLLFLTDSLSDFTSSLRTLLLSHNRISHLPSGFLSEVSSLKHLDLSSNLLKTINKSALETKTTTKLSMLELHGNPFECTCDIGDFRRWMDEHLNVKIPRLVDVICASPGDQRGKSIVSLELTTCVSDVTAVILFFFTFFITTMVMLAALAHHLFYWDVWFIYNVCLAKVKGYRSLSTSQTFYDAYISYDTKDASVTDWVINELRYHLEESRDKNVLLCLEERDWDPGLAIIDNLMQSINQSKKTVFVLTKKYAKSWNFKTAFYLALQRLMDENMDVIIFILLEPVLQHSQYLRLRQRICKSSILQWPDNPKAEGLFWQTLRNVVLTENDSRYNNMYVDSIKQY
As to the kind of experiment: Inhibition of R848-induced signaling in HEK-Blue hTLR8 cell line (Quanti-Blue). Format: cell-based. In outline: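 HEK-Blue hTLR8 cells, 45,000 per well, cultured 24 h then switched to serum-free DMEM; after a further 24 h, supernatant SEAP read with Quanti-Blue at 620 nm. Inhibition computed relative to R848 and untreated-cell OD620; IC50 from curve fit.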

The target of data set [2] is T1, TLR8. As to the kind of experiment: Specificity test in HEK-Blue TLR cell lines: TLR8. It is filed as cell-based. How it is done:
The selectivity of compounds for receptors in TLR family was tested in HEK-Blue cells overexpressing various TLRX (x=1 to 9) respectively. The steps of this test method were the same as those mentioned above in “Activity Test of Compounds”, except that the ligands corresponding to different TLRs were used to activate the downstream signaling in the corresponding cells. Among these, ploy (I:C) (20 μg/mL), LPS (40 ng/mL), Pam3CSK4 (100 ng/mL), Pam2CSK4 (100 ng/mL), flagellin (200 ng/mL), R848 (1 μg/mL) and ODN2006 (0.5 μM) were used to selectively activate HEK-Blue hTLR3-, hTLR4-, hTLR1/2-, hTLR2/6-, hTLR5-, hTLR7- and hTLR9-overexpressing cells, respectively.

For data set [3], the target named is T1, TLR8. Briefly: ORN06-induced signaling in HEK-Blue hTLR8 cell line. Format: cell-based. How it is done: HEK Blue hTLR8 cells or HEK Blue hTLR7 cells were cultured in DMEM medium supplemented with 10% fetal bovine serum, penicillin (100 U/mL) and streptomycin ([…]). Thereafter, cells were seeded in 96-well plate (45,000 cells per well), and were cultured for 24 hours in a humidified incubator (37° C., 5% CO2).
After 24 hours, the supernatant and suspending cells were aspirated and replaced with fresh serum-free DMEM. Cells were treated with 1 μg/mL of R848 (agonist of TLR7/8) or 5 μg/mL of ssRNA40/LyoVec or 5 μg/mL of ORN06/LyoVec (InvivoGen) and compounds with specified concentrations, and were placed in a humidified incubator (37° C., 5% CO2) for co-culture.
After 24 hours, 50 μL of the medium was aspirated from each well and then added to a new 96-well plate, followed by the addition of 50 μL of Quanti-Blue in each well and the incubation at 37° C. in darkness. Changes in color would occur in the […] within 60 minutes, and the absorbance was measured at 620 nm by using the multi-mode plate reader Vrioskan Flash. Inhibition rate (%)=[R848 (OD620)−Compound (OD620)]/[R848 (OD620)−Control (OD620)]×100%. Among these, the control group was only added with the same amount of cells. Finally, the software Prism 6.0 was utilized to plot a graph and calculate IC50 values. […]

In the next data set the test system is HEK-Blue hTLR8 cell line. As to the kind of experiment: Toxicity test of compounds (CCK-8 cell viability). More on the design: key to WST1 (normalized toxicity effect): viability relative to control well (background-subtracted OD), 1 = control. Format: cell-based, human. How it is done:
In the 96-well plate used for the above-mentioned activity test of compounds (remaining 50 μL of culture medium containing cells), 5 μL of CellCountingKit-8 (CCK-8) Supermix was added to each well. Note that the introduction of air bubbles into the wells should be avoided since the air bubbles would interfere with the detection of OD value.
The culture plate was incubated in an incubator for 1 to 4 hours,
The edge of the 96-well plate could be tapped gently before reading the plate, and then the absorbance at 450 nm was measured by using the multi-mode plate reader.
Cell viability (%) was determined using the following formula: cell viability (%)=([Compound well ([…])−Background well (OD450)]/[Control well ([…])−Background well (OD450)])×100%. Among these, the background well was only added with the medium and CCK-8 reagent, the control well was only added with the medium, cells, R848 and CCK-8, and the compound wells were added with the medium, cells, R848, compounds in different concentrations, and CCK-8.

Where [4] appears, read: HEK-Blue hTLR8 cell line (FIG. 1, FIG. 10).
[5] abbreviates: HEK-Blue hTLR8 cell line, at a concentration of 100 μM (FIG. 12).

For the compound `CSc1nnc(CCCO)n1-c1cc(C)c(C)c(C)c1` [Compound 24, 3-(5-(methylthio)-4-(3,4,5-trimethylphenyl)-4H-1,2,4-triazole-3-yl)propan-1-ol], at TLR8 [1] (setting [4]), the “inhibitory effect on R848-induced signaling” value is recorded as “excellent inhibitory effect”. The compound also registered an IC50 against TLR8 [1] (R848-induced signaling, HEK-Blue hTLR8 cell line, value ± standard deviation, at least triplicate) of 30 ± 2 nM. Moreover, the “specific inhibitory effect on HEK-Blue hTLR8 cell line” value on TLR8 [2] (at a concentration of 20 μM (FIG. 3)) is “specific inhibitory effect”. Besides, at TLR8 [3] (HEK-Blue hTLR8 cell line (FIG. 1)), the “inhibitory effect on ORN06-induced signaling” value is reported as “excellent inhibitory effect”. The “toxicity in HEK-Blue hTLR8 cell line” value in the data set with HEK-Blue hTLR8 cell line (even at a concentration of 100 μM (FIG. 2)) was “did not cause significant toxicity”.
Turning to `CCOCc1nc(I)c(-c2ccccc2)n1CC(C)(C)O` [Compound 53, 1-[2-(ethoxymethyl)-4-iodo-5-phenyl-1H-imidazole-1-yl]-2-methylpropan-2-ol], the “inhibitory effect on R848-induced signaling” value against TLR8 [1] (setting [4]) and against TLR8 [1] (setting [5]) was “significant inhibitory effect” each time. Besides, the “Remaining R848-induced TLR8 signaling (normalized activity; ligand+DMSO = 1, untreated = 0)” value on TLR8 [1] (HEK-Blue hTLR8 cell line, normalized, ligand+DMSO = 100% activity, untreated = 0%) stood at 0.1 ± 0.1. The “specific inhibitory effect on TLR8 signaling pathway” value at TLR8 [2] (at a concentration of 100 μM (FIG. 11)) is reported as “specific inhibitory effect”. Besides, the “synergistic activating effect on ORN06-induced signaling” value at TLR8 [3] (setting [5]) is on record as “synergistic activating effect”. In addition, in the data set with HEK-Blue hTLR8 cell line (HEK-Blue hTLR8 cells, under the test conditions (FIG. 10)), the “influence on cell viability” value was “no influence on cell viability”. Further, the “WST1 (normalized toxicity effect)” value with HEK-Blue hTLR8 cell line (normalized cell viability, HEK-Blue cell lines) stood at 0.9 ± 0.2.
